row,Structure (SMILES),melting point [°C]
1,Nc1ccc(OCc2ccccn2)c(F)c1,67 to 69
2,CCOc1ccc(OC(C)(C)C(=O)O)cc1,66 to 68
3,NC(=O)CCc1csc(N)n1,141 to 143
4,O=S(=O)(Cl)Cc1noc2ccccc12,96 to 98
5,O=C1CCc2c(F)cc(F)cc21,95 to 97
6,CCc1ocnc1C(=O)O,104 to 106
7,CN1C(=O)CCc2cc(Br)ccc21,79 to 81
8,CC(C)(C)OC(=O)N1CCc2c(sc(N)c2C#N)C1,202 to 204
9,O=C1C2C3CC4C2C(=O)C2C1C3C42 (configuration not stated),240 to 242
10,CC(=O)c1ccc(Cl)c(F)c1,39 to 41
11,COc1ccc(C)cc1-c1nnc(S)n1N,247 to 249
12,COc1ccc(-c2n[nH]c(=O)c3ccccc23)cc1F,269 to 271
13,O=C(O)c1cccc(S(=O)(=O)Nc2ccccc2Cl)c1,186 to 188
14,O=C(O)c1cc(-c2ccc(Cl)s2)[nH]n1,231 to 233
15,Cc1ncsc1C(=O)NC1CCNCC1,136 to 138
16,Fc1ccc(Br)c(-c2nn[nH]n2)c1,193 to 195
17,CC(C)Oc1cnc(C(=O)O)cn1,109 to 111
18,O=C(O)C1=NOC(c2ccccc2)C1 (configuration not stated),102 to 104
19,COCC(=O)Nc1ccc(O)cc1,139 to 141
20,Cn1ccc(N2CCC(N)C2=O)n1 (configuration not stated),141 to 143
21,Nc1c(Br)cc(Cl)cc1C(=O)O,232 to 234
22,CC(=O)c1ccc(Cl)c(N)c1,103 to 105
23,CN(C)c1ccc(C(N)=O)cc1,207 to 209
24,CC(C)Cc1ccc(C(=O)CCC(=O)O)cc1,113 to 115

row,Structure (SMILES),melting point [°C]
1,CC(C)S(=O)(=O)Nc1ccccc1F,52 to 54
2,CCC1(C)NC(=O)N(CC(=O)O)C1=O (configuration not stated),156 to 158
3,Cc1ccc(C(=O)c2c(N)sc3c2CCC3)cc1F,177 to 179
4,O=C(O)c1ccc(N2CCOCC2)c(F)c1,220 to 222
5,Cc1ccnc(Oc2cc(N)ccc2C)c1,76 to 78
6,O=C(O)c1ncoc1-c1cccs1,200 to 202
7,CN(C)c1ccc(-c2nc3ccccc3s2)cc1,171 to 173
8,CC(C)C(NC(=O)c1ccc(Cl)cc1)C(=O)O (configuration not stated),197 to 199
9,NC(=O)c1ccc(=O)[nH]n1,326 to 328
10,O=C(O)CCc1cccc(F)c1F,106 to 108
11,CC1Cc2ccccc2N1c1ccccc1C(=O)O (configuration not stated),124 to 126
12,O=C(O)c1cccc(OCc2cccnc2)c1,195 to 197
13,CC(C)OCCS(=O)(=O)NCC(=O)O,63 to 65
14,O=C1CCc2c(Br)cccc21,95 to 99
15,O=C(CCl)N1CCN(S(=O)(=O)c2ccc([N+](=O)[O-])cc2)CC1,187 to 189
16,Cc1cc([N+](=O)[O-])cnc1N1CCCCC1C (configuration not stated),48 to 50
17,COC(=O)c1cc(OC)c(S(=O)(=O)O)s1,109 to 111
18,O=C(O)c1cnn(-c2ccc([N+](=O)[O-])cc2)c1,258 to 260
19,CCn1nc(C(=O)O)c(=O)c2ccccc21,210 to 212
20,CNc1cc(C(=O)OC)ccc1N,79 to 81
21,NC1CCCc2nc(-c3ccc(F)cc3)sc21 (configuration not stated),54 to 56
22,O=C(O)CS(=O)(=O)CCCc1ccccc1,97 to 99
23,O=C(O)CCc1ncc(-c2ccco2)o1,140 to 142
24,Cn1c(Cl)nnc1-c1ccccc1,161 to 163

row,Structure (SMILES),melting point [°C]
1,O=S(=O)(c1cccc(-c2nnc(S)n2-c2ccc(OC(F)(F)F)cc2)c1)N1CCOCC1,247 to 249
2,O=C(O)c1cccc(N2C(=O)CSC2=S)c1,260 to 262
3,Cn1cnc2cc(C(=O)O)ccc21,313 to 315
4,O=C(O)Cc1cnn(-c2ccccc2)n1,105 to 107
5,O=C(O)COc1ccc(C(=O)c2ccccc2)cc1,152 to 156
6,NC(=O)C1CCCC(N)C1 (configuration not stated),132 to 134
7,Cc1ccc(S(=O)(=O)N2Cc3ccccc3CC2C(=O)O)cc1 (configuration not stated),143 to 145
8,Cc1cc(N2CCCC(N)C2=O)n(C)n1 (configuration not stated),88 to 90
9,Clc1ccc(-n2cccn2)cc1Cl,59 to 61
10,O=c1c2ccccc2nc(Cl)n1-c1ccccc1,127 to 129
11,CCOc1ccc(S(=O)(=O)Cl)c2ccccc12,98 to 100
12,O=C(O)Cc1ccc2c(c1)CCCC2,78 to 80
13,COc1cc(C(=O)O)cc([N+](=O)[O-])c1OC,193 to 195
14,Cc1n[nH]c(C)c1[N+](=O)[O-],121 to 123
15,CCCNC(=O)c1cccc(C(=O)O)c1,229 to 231
16,COc1ccccc1-n1cc(S(=O)(=O)Cl)cn1,68 to 70
17,Cn1cc(CO)c(-c2ccccc2)n1,107 to 109
18,COc1ccc(N2C(=O)C=CC2=O)c(OC)c1,125 to 127
19,CC1CCN(Cc2ccccc2)c2ccccc2N1 (configuration not stated),68 to 70
20,COc1ccccc1C1(C(=O)O)CC1,131 to 133
21,CCc1ccc(-c2cnnc(N)n2)cc1,248 to 250
22,O=C(CCl)Nc1cc(S(=O)(=O)N2CCOCC2)ccc1Cl,131 to 133
23,COc1cc2c(cc1[N+](=O)[O-])C(=O)CCC2,176 to 178
24,Cc1c(C(=O)O)cnn1CC(C)C,109 to 111

# — a melting point compilation (Tetko et al.)
